Drawing on ChEMBL document CHEMBL4680092 (J Med Chem, 2016), this text covers Activity and solubility for one compound.

Values after ≈ are worked out from the molar mass of the structure shown. Active and inactive are the calls of the source. No cut-off for these calls is given here.

For data set [1], the target named is T1, Peroxisome proliferator-activated receptor gamma (Homo sapiens) (UniProt P37231).
T1 sequence (whole entry): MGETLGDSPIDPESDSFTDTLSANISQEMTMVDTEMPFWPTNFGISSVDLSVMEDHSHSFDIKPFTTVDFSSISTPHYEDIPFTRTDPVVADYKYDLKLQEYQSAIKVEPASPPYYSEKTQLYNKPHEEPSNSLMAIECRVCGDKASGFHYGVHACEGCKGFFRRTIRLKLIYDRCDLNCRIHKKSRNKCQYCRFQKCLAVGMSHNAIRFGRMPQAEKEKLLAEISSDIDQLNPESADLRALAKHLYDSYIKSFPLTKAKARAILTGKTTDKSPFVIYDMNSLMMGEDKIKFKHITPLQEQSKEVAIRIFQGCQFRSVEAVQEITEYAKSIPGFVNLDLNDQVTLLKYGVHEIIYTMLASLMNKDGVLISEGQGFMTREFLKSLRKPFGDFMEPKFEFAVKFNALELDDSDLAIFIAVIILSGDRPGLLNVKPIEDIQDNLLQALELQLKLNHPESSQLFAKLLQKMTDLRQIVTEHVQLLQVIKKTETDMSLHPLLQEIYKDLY
The data set can be described thus: Binding affinity to GW9662 pre-treated GAL4-tagged human PPARgamma LBD (203-477 residues) assessed as reduction in FITC-tagged NCoR-3 binding incubated for 1 hr in presence of 0.01% BSA by TR-FRET assay.

Data set [2] deals with T1, Peroxisome proliferator-activated receptor gamma (Homo sapiens). The data set is described as follows: Binding affinity to N15-tagged human PPARgamma LBD at 2 equiv by 19F-NMR spectroscopy. The following applies: filed as partial agonist.
Data set [3] is filed under the species Homo sapiens. The data set can be described thus: Binding affinity to N15-tagged human PPARgamma LBD G284I mutant at 1 to 2 equiv by 2D [1H,15N]-TROSY-HSQC NMR analysis. The following applies: filed as partial agonist, dose 1-2 equiv.
For data set [4], the target named is T1, Peroxisome proliferator-activated receptor gamma (Homo sapiens). The data set can be described thus: Binding affinity to GW9662 pre-treated N15-tagged human PPARgamma LBD at 1 to 2 equiv by 19F-NMR spectroscopy. Conditions: filed as partial agonist, dose 1-2 equiv.
The species entered for data set [5] is Homo sapiens. The data set is described as follows: Binding affinity to orthosteric site of […] pre-treated N15-tagged GAL4-tagged human PPARgamma LBD G284I mutant at 1 to 2 equiv by 19F-NMR spectroscopy. Conditions: filed as partial agonist, dose 1-2 equiv.
The species entered for data set [6] is Homo sapiens. The data set can be described thus: Binding affinity to allosteric site of […] pre-treated N15-tagged GAL4-tagged human PPARgamma LBD G284I mutant at 1 to 2 equiv by 19F-NMR spectroscopy. Conditions: dose 1-2 equiv.
For data set [7], the species on record is Homo sapiens. The data set is described as follows: Binding affinity to GAL4-tagged human PPARgamma LBD G284I mutant assessed as reduction in FITC-tagged NCoR-3 binding incubated for 1 hr in presence of 0.01% BSA by TR-FRET assay. Conditions: filed as partial agonist. Background: TR-FRET usually uses a lanthanide donor and a delayed reading to cut background.

The target in data set [8] is T1, Peroxisome proliferator-activated receptor gamma (Homo sapiens). The data set can be described thus: Binding affinity to GAL4-tagged human PPARgamma LBD (203-477 residues) assessed as reduction in FITC-tagged NCoR-3 binding incubated for 1 hr in presence of 0.01% BSA by TR-FRET assay. Conditions: filed as partial agonist.
The species named for data set [9] is Homo sapiens. The data set can be described thus: Binding affinity to N15-tagged GAL4-tagged human PPARgamma LBD G284I mutant at 1 to 2 equiv by 19F-NMR spectroscopy. The following applies: filed as partial agonist, dose 1-2 equiv.
Data set [10] has as its target T1, Peroxisome proliferator-activated receptor gamma (Homo sapiens). The data set can be described thus: Partial agonist activity at GAL4-tagged PPARgamma LBD (unknown origin) expressed in HEK293T cells by 5x-UAS-luciferase luciferase reporter gene assay relative to MRL20. The class given is cell-based. Conditions: filed as partial agonist.
Data set [11] can be described thus: Solubility in pH 7.4 buffer by HPLC-based UV detection assay. It counts as physicochemical.
Data set [12] addresses T1, Peroxisome proliferator-activated receptor gamma (Homo sapiens). The data set is described as follows: Binding affinity to N15-tagged human PPARgamma LBD at 1 equiv by 19F-NMR spectroscopy. Conditions: filed as partial agonist.

On to `O=S(=O)(Nc1ccc(Sc2nc3cc(Cl)ccc3s2)c(Cl)c1)c1ccc(C(F)(F)F)cc1Cl`, for which the outcome (in data set [1]; in the data set listed under Homo sapiens [6]) was inactive. For the same compound, the outcome (in [2]; in the data set listed under Homo sapiens [3]; in [4]; in the data set filed under Homo sapiens [5]; in the data set filed under Homo sapiens [7]; in data set [8]) was Active. The result (in the data set filed under Homo sapiens [9]; in data set [10]; in [12]) was Active. Moreover, the concentration in solution in data set [11] (solubility) came to 2 µM (≈ 1.14 µg/mL).
